Data published in the NIST ThermoML archive (doi:10.1021/acs.jced.8b01193).
± gives the expanded uncertainty stated by the source.

Experiments:
[1] = Molar enthalpy of transition or fusion; conditions: Crystal; DSC
[2] = Crystal; DSC

## O=C1CCCCCCCCCCCN1 [2-azacyclotridecanone]
[1]
  Molar enthalpy of transition or fusion: 3.9 ± 0.12 kcal/mol
[2]
  Triple point temperature: 425.95 ± 0.93 K
